Experimental data: patent US11034725B2, “Compositions and methods for treating cardiovascular disease” (Genentech, Inc., priority 2016, dated 2021)
Read-outs that look alike come from different tables or passages of the source. Numbered stars: 1 amine (or outer) side, 2 acyl side, 3 side chain; on linkers, the order of the positions; unused ones are H or OH. Bridge positions count the residues as written; N and C are the ends. Square brackets hold non-standard residues; d marks the D form. Peptide text beside a SMILES is read from it. * marks the point of attachment. Trp(6-Br) = N[C@@H](Cc1c[nH]c2cc(Br)ccc12)C(=O)O; Butanoyl(4-(4-HOPh)) = O=C(CCCc1ccc(O)cc1)*; Dihydrocaffeoyl = O=C(CCc1ccc(O)c(O)c1)*; Desaminotyrosyl = O=C(CCc1ccc(O)cc1)*; X9 = O=C([C@@H]1C(O)CCN1[*:1])[*:2]; X17 = O=C([C@H]1C[C@@H]1c1cccnc1)*; hArg = N=C(N)NCCCC[C@H](N)C(=O)O; X8 = O=C(c1ccc(N2CCOCC2)nc1)*; X42 = O=C(c1ccc2cc[nH]c2c1)*; X25 = COc1cc(CCC(=O)*)ccc1O; X10 = Nc1cccc(CCC(=O)*)c1; X29 = Nc1ccc(CCC(=O)*)cc1; X30 = O=C(CCc1cccc(O)c1)*; X35 = Nc1ccc(CCC(=O)*)cn1; Pentanoyl = CCCCC(=O)*

What was measured:
[1] = test system: His-EGF(A)-Fc; assay: His-EGF(A)-Fc TR-FRET counterscreen
[2] = target: T1, PCSK9Δhelix (Homo sapiens, UniProt Q8NBP7); assay: PCSK9Δhelix/Ab20 TR-FRET binding assay; conditions: Table 8E, additional compounds
T1 construct: Human PCSK9 construct M1-Q692 with an engineered TEV site (residue deletion Y166, R167); made in house; host or cells: CHO

[3] = target: PCSK9 (Homo sapiens, UniProt Q8NBP7); assay: PCSK9/EGF(A) TR-FRET binding assay
[4] = TR-FRET counterscreen, Table 8E, additional compounds
[5] = TR-FRET, read-out: PCSK9Δhelix/Ab20 IC50
[6] = TR-FRET, Table 8E, additional compounds, read-out: PCSK9/EGF(A) IC50

Chain of PCSK9 (Q8NBP7 153-692): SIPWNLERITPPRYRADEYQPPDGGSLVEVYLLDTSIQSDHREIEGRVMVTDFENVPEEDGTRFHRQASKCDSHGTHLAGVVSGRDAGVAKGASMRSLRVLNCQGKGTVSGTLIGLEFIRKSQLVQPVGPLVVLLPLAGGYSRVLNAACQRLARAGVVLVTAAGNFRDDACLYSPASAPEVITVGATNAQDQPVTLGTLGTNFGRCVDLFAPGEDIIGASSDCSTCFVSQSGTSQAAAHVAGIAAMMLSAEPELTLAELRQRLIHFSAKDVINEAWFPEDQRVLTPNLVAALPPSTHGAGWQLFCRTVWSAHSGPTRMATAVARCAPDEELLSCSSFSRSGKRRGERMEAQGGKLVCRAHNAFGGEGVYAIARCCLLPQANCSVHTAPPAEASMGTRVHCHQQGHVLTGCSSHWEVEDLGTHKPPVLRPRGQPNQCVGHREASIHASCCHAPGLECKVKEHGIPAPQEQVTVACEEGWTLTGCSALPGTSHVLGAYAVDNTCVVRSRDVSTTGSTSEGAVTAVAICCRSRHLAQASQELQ
Chain of PCSK9 (Q8NBP7 31-152 partner limits assumed): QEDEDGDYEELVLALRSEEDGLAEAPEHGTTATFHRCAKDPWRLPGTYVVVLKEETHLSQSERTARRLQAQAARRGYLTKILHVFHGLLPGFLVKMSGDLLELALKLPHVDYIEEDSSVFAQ
T1 sequence (Q8NBP7 with tags, fused parts or gaps limits assumed): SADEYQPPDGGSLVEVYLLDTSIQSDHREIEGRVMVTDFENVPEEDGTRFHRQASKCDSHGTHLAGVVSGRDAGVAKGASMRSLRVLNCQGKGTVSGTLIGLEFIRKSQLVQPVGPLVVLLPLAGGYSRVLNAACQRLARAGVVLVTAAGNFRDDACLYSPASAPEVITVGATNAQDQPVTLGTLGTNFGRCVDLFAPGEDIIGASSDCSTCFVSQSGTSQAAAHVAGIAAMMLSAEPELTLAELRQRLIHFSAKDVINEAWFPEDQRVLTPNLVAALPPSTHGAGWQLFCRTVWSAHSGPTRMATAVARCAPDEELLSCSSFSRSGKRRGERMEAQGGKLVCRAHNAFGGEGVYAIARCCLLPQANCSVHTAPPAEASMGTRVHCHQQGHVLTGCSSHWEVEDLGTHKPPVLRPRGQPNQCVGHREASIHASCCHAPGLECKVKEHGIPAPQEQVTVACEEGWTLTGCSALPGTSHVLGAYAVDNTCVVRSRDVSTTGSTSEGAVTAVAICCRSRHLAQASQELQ
T1 sequence (Q8NBP7 31-152 partner limits assumed): as the sequence (Q8NBP7 31-152 partner limits assumed) above

| Structure (SMILES) | IC50 [2, 5] [µM] | IC50 [3, 6] [µM] | other results |
| --- | --- | --- | --- |
| CC(=O)N[C@H](C(=O)N[C@H](C(=O)N[C@@H](Cc1ccccc1)C(=O)N[C@H](C(=O)N[C@@H](CO)C(=O)N[C@@H](Cc1c[nH]c2ccccc12)C(=O)N[C@@H](CCC(=O)O)C(=O)N[C@@H](CCC(=O)O)C(=O)N[C@@H](Cc1ccc(O)cc1)C(=O)N[C@@H](CC(C)C)C(=O)N[C@@H](CC(=O)O)C(=O)N[C@@H](Cc1c[nH]c2ccccc12)C(=O)N[C@H](C(=O)NCC(=O)N[C@@H](CO)C(=O)NCC(=O)N[C@H]1CSSC[C@@H](C(N)=O)NC(=O)CNC(=O)[C@H](CCC(N)=O)NC(=O)[C@H](CO)NC(=O)CNC(=O)[C@H](C(C)C)NC(=O)[C@H](CCCNC(=N)N)NC(=O)[C@H](CCCCN)NC(=O)[C@H](CC(C)C)NC(=O)[C@H](CC(N)=O)NC(=O)[C@H](Cc2c[nH]c3ccccc23)NC1=O)C(C)C)[C@@H](C)O)C(C)C)[C@@H](C)O [Compound 12] (Ac-TVFTSWEEYLDWVGSGCWNLKRVGSQGC-NH2; disulfide 17-28) | – | – | IC50 ([1]; counterscreen, Example 7): > 50 µM |
| CC[C@H](C)[C@@H]1NC(=O)[C@H](CCCNC(=N)N)NC(=O)[C@H](CCC(N)=O)NC(=O)[C@H](CC(C)C)NC(=O)[C@H](CC(N)=O)NC(=O)[C@H](Cc2c[nH]c3ccccc23)NC(=O)[C@@H]2C(O)CCN2C(=O)[C@H](CC(C)C)NC(=O)[C@H](CCCNC(=N)N)NC(=O)[C@@H](NC(=O)CNC(=O)[C@H](CO)NC(C)=O)CSSC[C@@H](C(N)=O)NC(=O)[C@@H]2CCCN2C(=O)[C@H](CC(C)C)NC(=O)CNC1=O (stereo partly shown) [Compound 37] (Ac-SGCRL[X9]WNLQRIGLPC-NH2; disulfide 3-16) | – | – | IC50 ([1]; TR-FRET counterscreen, Table 8D, * = some inhibition at highest concentrations, not sufficient to fit an IC50): > 50 µM |
| CCCCC(=O)N[C@@H](Cc1c[nH]c2cc(Br)ccc12)C(=O)N[C@@H](CC(N)=O)C(=O)N[C@@H](CC(C)C)C(=O)N[C@H](C(=O)N[C@@H](CCCNC(=N)N)C(=O)N[C@H](C(=O)NCC(=O)N[C@@H](CC(C)C)C(=O)N[C@H](C(=O)N[C@@H](CCCNC(=N)N)C(N)=O)[C@@H](C)O)[C@@H](C)CC)C(C)C [Compound 187] (Pentanoyl-[Trp(6-Br)]NLVRIGLTR-NH2) | – | – | IC50 [1, 4]: 38 µM |
| CC[C@H](C)[C@H](NC(=O)[C@H](CCCCNC(=N)N)NC(=O)[C@@H](NC(=O)[C@H](CC(C)C)NC(=O)[C@H](CC(N)=O)NC(=O)[C@H](Cc1c[nH]c2ccccc12)NC(=O)CCc1ccc(O)cc1)C(C)C)C(=O)NCC(=O)N[C@@H](CC(C)C)C(=O)N[C@@H](CC(C)C)C(=O)N[C@@H](CCCNC(=N)N)C(N)=O [Compound 214] (Desaminotyrosyl-WNLV[hArg]IGLLR-NH2) | 0.21 | 3 | – |
| CC[C@H](C)[C@H](NC(=O)[C@H](CCCCNC(=N)N)NC(=O)[C@@H](NC(=O)[C@H](CC(C)C)NC(=O)[C@H](CC(N)=O)NC(=O)[C@H](Cc1c[nH]c2ccccc12)NC(=O)CCc1cccc(N)c1)C(C)C)C(=O)NCC(=O)N[C@@H](CC(C)C)C(=O)N[C@@H](CC(C)C)C(=O)N[C@@H](CCCNC(=N)N)C(N)=O [Compound 215] (X10-WNLV[hArg]IGLLR-NH2) | 0.48 | 7 | – |
| CC[C@H](C)[C@H](NC(=O)[C@H](CCCCNC(=N)N)NC(=O)[C@@H](NC(=O)[C@H](CC(C)C)NC(=O)[C@H](CC(N)=O)NC(=O)[C@H](Cc1c[nH]c2ccccc12)NC(=O)CCc1ccc(N)nc1)C(C)C)C(=O)NCC(=O)N[C@@H](CC(C)C)C(=O)N[C@@H](CC(C)C)C(=O)N[C@@H](CCCNC(=N)N)C(N)=O [Compound 216] (X35-WNLV[hArg]IGLLR-NH2) | 0.3 | 6 | – |
| CC[C@H](C)[C@H](NC(=O)[C@H](CCCCNC(=N)N)NC(=O)[C@@H](NC(=O)[C@H](CC(C)C)NC(=O)[C@H](CC(N)=O)NC(=O)[C@H](Cc1c[nH]c2ccccc12)NC(=O)CCc1cccc(O)c1)C(C)C)C(=O)NCC(=O)N[C@@H](CC(C)C)C(=O)N[C@@H](CC(C)C)C(=O)N[C@@H](CCCNC(=N)N)C(N)=O [Compound 217] (X30-WNLV[hArg]IGLLR-NH2) | 0.39 | 4.1 | – |
| CC[C@H](C)[C@H](NC(=O)[C@H](CCCCNC(=N)N)NC(=O)[C@@H](NC(=O)[C@H](CC(C)C)NC(=O)[C@H](CC(N)=O)NC(=O)[C@H](Cc1c[nH]c2ccccc12)NC(=O)CCc1ccc(N)cc1)C(C)C)C(=O)NCC(=O)N[C@@H](CC(C)C)C(=O)N[C@@H](CC(C)C)C(=O)N[C@@H](CCCNC(=N)N)C(N)=O [Compound 218] (X29-WNLV[hArg]IGLLR-NH2) | 0.26 | 5 | – |
| CC[C@H](C)[C@H](NC(=O)[C@H](CCCCNC(=N)N)NC(=O)[C@@H](NC(=O)[C@H](CC(C)C)NC(=O)[C@H](CC(N)=O)NC(=O)[C@H](Cc1c[nH]c2ccccc12)NC(=O)c1ccc(N2CCOCC2)nc1)C(C)C)C(=O)NCC(=O)N[C@@H](CC(C)C)C(=O)N[C@@H](CC(C)C)C(=O)N[C@@H](CCCNC(=N)N)C(N)=O [Compound 219] (X8-WNLV[hArg]IGLLR-NH2) | 0.68 | 9.9 | – |
| CC[C@H](C)[C@H](NC(=O)[C@H](CCCCNC(=N)N)NC(=O)[C@@H](NC(=O)[C@H](CC(C)C)NC(=O)[C@H](CC(N)=O)NC(=O)[C@H](Cc1c[nH]c2ccccc12)NC(=O)CCCc1ccc(O)cc1)C(C)C)C(=O)NCC(=O)N[C@@H](CC(C)C)C(=O)N[C@@H](CC(C)C)C(=O)N[C@@H](CCCNC(=N)N)C(N)=O [Compound 220] ({Butanoyl(4-(4-HOPh))}-WNLV[hArg]IGLLR-NH2) | 0.91 | 37 | – |
| CC[C@H](C)[C@H](NC(=O)[C@H](CCCCNC(=N)N)NC(=O)[C@@H](NC(=O)[C@H](CC(C)C)NC(=O)[C@H](CC(N)=O)NC(=O)[C@H](Cc1c[nH]c2ccccc12)NC(=O)c1ccc2cc[nH]c2c1)C(C)C)C(=O)NCC(=O)N[C@@H](CC(C)C)C(=O)N[C@@H](CC(C)C)C(=O)N[C@@H](CCCNC(=N)N)C(N)=O [Compound 222] (X42-WNLV[hArg]IGLLR-NH2) | 1.4 | 21 | – |
| CC[C@H](C)[C@H](NC(=O)[C@H](CCCCNC(=N)N)NC(=O)[C@@H](NC(=O)[C@H](CC(C)C)NC(=O)[C@H](CC(N)=O)NC(=O)[C@H](Cc1c[nH]c2ccccc12)NC(=O)[C@H](N)Cc1ccc(O)cc1)C(C)C)C(=O)NCC(=O)N[C@@H](CC(C)C)C(=O)N[C@@H](CC(C)C)C(=O)N[C@@H](CCCNC(=N)N)C(N)=O [Compound 223] (H-[dY]WNLV[hArg]IGLLR-NH2) | 1.4 | 21 | – |
| CC[C@H](C)[C@H](NC(=O)[C@H](CCCCNC(=N)N)NC(=O)[C@@H](NC(=O)[C@H](CC(C)C)NC(=O)[C@H](CC(N)=O)NC(=O)[C@H](Cc1c[nH]c2ccccc12)NC(=O)CCc1ccc(O)c(O)c1)C(C)C)C(=O)NCC(=O)N[C@@H](CC(C)C)C(=O)N[C@@H](CC(C)C)C(=O)N[C@@H](CCCNC(=N)N)C(N)=O [Compound 224] (Dihydrocaffeoyl-WNLV[hArg]IGLLR-NH2) | 0.53 | 7 | – |
| CC[C@H](C)[C@H](NC(=O)[C@H](CCCCNC(=N)N)NC(=O)[C@@H](NC(=O)[C@H](CC(C)C)NC(=O)[C@H](CC(N)=O)NC(=O)[C@H](Cc1c[nH]c2ccccc12)NC(=O)[C@H]1C[C@@H]1c1cccnc1)C(C)C)C(=O)NCC(=O)N[C@@H](CC(C)C)C(=O)N[C@@H](CC(C)C)C(=O)N[C@@H](CCCNC(=N)N)C(N)=O [Compound 225] (X17-WNLV[hArg]IGLLR-NH2) | 1.8 | 27 | – |
| CC[C@H](C)[C@H](NC(=O)[C@H](CCCCNC(=N)N)NC(=O)[C@@H](NC(=O)[C@H](CC(C)C)NC(=O)[C@H](CC(N)=O)NC(=O)[C@H](Cc1c[nH]c2ccccc12)NC(=O)[C@@H](N)Cc1ccc(O)cc1)C(C)C)C(=O)NCC(=O)N[C@@H](CC(C)C)C(=O)N[C@@H](CC(C)C)C(=O)N[C@@H](CCCNC(=N)N)C(N)=O [Compound 226] (H-YWNLV[hArg]IGLLR-NH2) | 0.35 | 6.2 | – |
| CC[C@H](C)[C@H](NC(=O)[C@H](CCCCNC(=N)N)NC(=O)[C@@H](NC(=O)[C@H](CC(C)C)NC(=O)[C@H](CC(N)=O)NC(=O)[C@H](Cc1c[nH]c2ccccc12)NC(=O)CCc1ccc(O)c(OC)c1)C(C)C)C(=O)NCC(=O)N[C@@H](CC(C)C)C(=O)N[C@@H](CC(C)C)C(=O)N[C@@H](CC(N)=O)C(N)=O [Compound 238] (X25-WNLV[hArg]IGLLN-NH2) | 0.33 | 7.7 | – |
| CC[C@H](C)[C@H](NC(=O)[C@H](CCCCNC(=N)N)NC(=O)[C@@H](NC(=O)[C@H](CC(C)C)NC(=O)[C@H](CC(N)=O)NC(=O)[C@H](Cc1c[nH]c2ccccc12)NC(=O)CCc1ccc(O)c(OC)c1)C(C)C)C(=O)NCC(=O)N[C@@H](CCC(N)=O)C(=O)N[C@@H](CCCNC(=N)N)C(N)=O [Compound 239] (X25-WNLV[hArg]IGQR-NH2) | – | – | IC50 ([2]; PCSK9Δhelix/Ab20 IC50, TR-FRET): 1.2 µM; IC50 [3]: 32 µM |
| CC[C@H](C)[C@H](NC(=O)[C@H](CCCCNC(=N)N)NC(=O)[C@@H](NC(=O)[C@H](CC(C)C)NC(=O)[C@H](CC(N)=O)NC(=O)[C@H](Cc1c[nH]c2ccccc12)NC(=O)CCc1ccc(O)c(OC)c1)C(C)C)C(=O)NCC(=O)N[C@@H](CC(N)=O)C(=O)N[C@@H](CCCNC(=N)N)C(N)=O [Compound 240] (X25-WNLV[hArg]IGNR-NH2) | 0.92 | 31 | – |
| CC[C@H](C)[C@@H]1NC(=O)[C@H](CCCNC(=N)N)NC(=O)[C@H](CCC(N)=O)NC(=O)[C@H](CC(C)C)NC(=O)[C@H](CC(N)=O)NC(=O)[C@H](Cc2c[nH]c3ccccc23)NC(=O)[C@@H]2C(O)CCN2C(=O)[C@H]([C@@H](C)CC)NC(=O)[C@H](Cc2ccccc2)NC(=O)[C@@H](NC(=O)CNC(=O)[C@H](CO)NC(C)=O)CSSC[C@@H](C(N)=O)NC(=O)[C@H](CC(C)C)NC(=O)[C@H](CC(C)C)NC(=O)CNC1=O (stereo partly shown) [Compound 242] (Ac-SGCFI[X9]WNLQRIGLLC-NH2; disulfide 3-16) | – | – | IC50 [1, 4]: ≥ 50 µM |
